Reference: patent publication US20250122192A1, “5-PYRIMIDINECARBOXAMIDE DERIVATIVES AND METHODS OF USING THE SAME” (Rgenta Therapeutics, Inc., priority 2021, published 2025)
pIC50: −log10 of the molar value. Where a name gives a salt, the structure may show the parent alone.

Tested on: PMS1
Assay: Mini-gene reporter assay-PMS1
Assay type: cell-based
Conditions: Homo sapiens, HEK293, PMS1 mini-gene firefly luciferase reporter transiently transfected into HEK293 cells; read-out: PMS1 IC50
Method in brief: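 Compound dilution series in duplicate added to transiently transfected HEK293 reporter cells, then incubated; EC50 from Levenberg-Marquardt fit of luminescence. The reporter joins the alternatively skipped exon, its neighbouring introns and exons to firefly luciferase, so induced inclusion gives more signal.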

Row | SMILES | pIC50
1 | CCOc1nc(N2CC[C@H](N(C)C)C2)ncc1C(=O)Nc1cc(F)c2nc(C)cn2c1 [Compound 294, (S)-2-(3-(dimethylamino)pyrrolidin-1-yl)-4-ethoxy-N-(8-fluoro-2-methylimidazo[1,2-a]pyridin-6-yl)pyrimidine-5-carboxamide formate] | < 5.52
2 | CCOc1nc(N2CC[C@@H](NC)C2)ncc1C(=O)Nc1cc(OC)c2nn(C)cc2c1 [Compound 295, (R)-4-ethoxy-N-(7-methoxy-2-methyl-2H-indazol-5-yl)-2-(3-(methylamino)pyrrolidin-1-yl)pyrimidine-5-carboxamide 4-methylbenzenesulfonate] | 6.00 to 6.30
3 | CCOc1nc(N2CCC(CN(C)C)CC2)ncc1C(=O)Nc1cc(F)c2nc(C)cn2c1 [Compound 300, 2-(4-((dimethylamino)methyl)piperidin-1-yl)-4-ethoxy-N-(8-fluoro-2-methylimidazo[1,2-a]pyridin-6-yl)pyrimidine-5-carboxamide formate] | 5.52 to 6.00
4 | Cn1cc2cc(NC(=O)c3cnc(N4CCNCC4)nc3OCC(F)F)cc(F)c2n1 [Compound 302, 4-(2,2-difluoroethoxy)-N-(7-fluoro-2-methyl-2H-indazol-5-yl)-2-(piperazin-1-yl)pyrimidine-5-carboxamide] | < 5.52
5 | CC(C)COc1nc(N2CCNCC2)ncc1C(=O)Nc1cc(F)c2nn(C)cc2c1 [Compound 306, N-(7-fluoro-2-methyl-2H-indazol-5-yl)-4-isobutoxy-2-(piperazin-1-yl)pyrimidine-5-carboxamide formate] | 5.52 to 6.00
6 | CCOc1nc(N2CC[C@@H](NC)C2)ncc1C(=O)Nc1ccc2nc(C)cn2n1 [Compound 317] | < 5.52
7 | CCOc1nc(N2CC[C@H](NC)C2)ncc1C(=O)Nc1ccc2nc(C)cn2n1 [Compound 318] | < 5.52
8 | CCOc1nc(N2CCC(NC)C2)ncc1C(=O)Nc1ccc2nc(C)cn2n1 (stereo not drawn) [Compound 319] | < 5.52

The next lines start with the values.

Row | pIC50 | SMILES
9 | 5.52 to 6.00 | CCOc1nc(N2CC[C@@H](N(C)C)C2)ncc1C(=O)Nc1cc(F)c2nn(C)cc2c1 [Compound 292, (R)-2-(3-(dimethylamino)pyrrolidin-1-yl)-4-ethoxy-N-(7-fluoro-2-methyl-2H-indazol-5-yl)pyrimidine-5-carboxamide formate]
10 | < 5.52 | CCOc1nc(N2CC[C@H](NC)C2)ncc1C(=O)Nc1ccc2nc(C)cn2c1 [Compound 293, (S)-4-ethoxy-2-(3-(methylamino)pyrrolidin-1-yl)-N-(2-methylimidazo[1,2-a]pyridin-6-yl)pyrimidine-5-carboxamide formate]
11 | < 5.52 | CCOc1nc(N2CCNC3(CC3)C2)ncc1C(=O)Nc1cc(F)c2nc(C)cn2c1 [Compound 296, 4-ethoxy-N-(8-fluoro-2-methylimidazo[1,2-a]pyridin-6-yl)-2-(4,7-diazaspiro[2.5]octan-7-yl)pyrimidine-5-carboxamide 2,2,2-trifluoroacetate]
12 | > 6.30 | CCOc1nc(N2CC[C@H](CNC)C2)ncc1C(=O)Nc1cc(F)c2nc(C)cn2c1 [Compound 297, (R)-4-ethoxy-N-(8-fluoro-2-methylimidazo[1,2-a]pyridin-6-yl)-2-(3-((methylamino)methyl)pyrrolidin-1-yl)pyrimidine-5-carboxamide 4-methylbenzenesulfonate]
13 | 5.52 to 6.00 | CCOc1nc(N2CC[C@H](NC)C2)ncc1C(=O)Nc1cc(OC)c2nn(C)cc2c1 [Compound 298, (S)-4-ethoxy-N-(7-methoxy-2-methyl-2H-indazol-5-yl)-2-(3-(methylamino)pyrrolidin-1-yl)pyrimidine-5-carboxamide 4-methylbenzenesulfonate]
14 | < 5.52 | CCOc1nc(N2CCNC3(CC3)C2)ncc1C(=O)Nc1cc(F)c2nn(C)cc2c1 [Compound 299, 4-ethoxy-N-(7-fluoro-2-methyl-2H-indazol-5-yl)-2-(4,7-diazaspiro[2.5]octan-7-yl)pyrimidine-5-carboxamide formate]
15 | 5.52 to 6.00 | CCCOc1nc(N2CCNCC2)ncc1C(=O)Nc1cc(F)c2nn(C)cc2c1 [Compound 301, N-(7-fluoro-2-methyl-2H-indazol-5-yl)-2-(piperazin-1-yl)-4-propoxypyrimidine-5-carboxamide]
16 | 6.00 to 6.30 | CCOc1nc(N2CCC3(CC2)CN(C)C3)ncc1C(=O)Nc1cc(F)c2nc(C)cn2c1 [Compound 303, 4-ethoxy-N-(8-fluoro-2-methylimidazo[1,2-a]pyridin-6-yl)-2-(2-methyl-2,7-diazaspiro[3.5]nonan-7-yl)pyrimidine-5-carboxamide]
17 | 6.00 to 6.30 | CCOc1nc(N2CC[C@@H](CNC)C2)ncc1C(=O)Nc1cc(F)c2nc(C)cn2c1 [Compound 304, (S)-4-ethoxy-N-(8-fluoro-2-methylimidazo[1,2-a]pyridin-6-yl)-2-(3-((methylamino)methyl)pyrrolidin-1-yl)pyrimidine-5-carboxamide 4-methylbenzenesulfonate]
18 | 6.00 to 6.30 | CCOc1nc(N2CC[C@@H](CN(C)C)C2)ncc1C(=O)Nc1cc(F)c2nc(C)cn2c1 [Compound 305, (S)-2-(3-((dimethylamino)methyl)pyrrolidin-1-yl)-4-ethoxy-N-(8-fluoro-2-methylimidazo[1,2-a]pyridin-6-yl)pyrimidine-5-carboxamide formate]
19 | 5.52 to 6.00 | CCOc1nc(N2CCNCC2)ncc1C(=O)Nc1cc2cn(C)nc2c(F)c1C [Compound 307, 4-ethoxy-N-(7-fluoro-2,6-dimethyl-2H-indazol-5-yl)-2-(piperazin-1-yl)pyrimidine-5-carboxamide hydrochloride]

Same assay, conditions: Homo sapiens, HEK293, read-out: PMS1% Effect at 5 μM

Row | SMILES | activation at 5 µM [%]
20 | CCOc1nc(N2CCNCC2)ncc1C(=O)Nc1cn2cc(C)nc2cc1F [Compound 308, 4-ethoxy-N-(7-fluoro-2-methylimidazo[1,2-a]pyridin-6-yl)-2-(piperazin-1-yl)pyrimidine-5-carboxamide formate] | > 75

Same assay, conditions: Homo sapiens; at 5 μM; PMS1 mini-gene firefly luciferase reporter in HEK293 cells; read-out: PMS1% Effect at 5 μM

Row | SMILES | activation at 5 µM [%]
21 | CCOc1nc(N2CC[C@@H](NC)C2)ncc1C(=O)Nc1ccn2nc(C)cc2c1 [Compound 313, 4-ethoxy-2-[(3R)-3-(methylamino)pyrrolidin-1-yl]-N-2-methylpyrazolo[1,5-a]-pyridin-5-ylpyrimidine-5-carboxamide] | > 75
22 | CCOc1nc(N2CC[C@H](NC)C2)ncc1C(=O)Nc1ccn2nc(C)cc2c1 [Compound 314, 4-ethoxy-2-[(3S)-3-(methylamino)pyrrolidin-1-yl]-N-2-methylpyrazolo[1,5-a]-pyridin-5-ylpyrimidine-5-carboxamide] | > 75
23 | CCOc1nc(C2=CCNC2)ncc1C(=O)Nc1cc(F)c2nc(C)cn2c1 [Compound 315, 2-(2,5-dihydro-1H-pyrrol-3-yl)-4-ethoxy-N-8-fluoro-2-methylimidazo[1,2-a]-pyridin-6-ylpyrimidine-5-carboxamide] | > 75
24 | CCOc1nc(C2CCNC2)ncc1C(=O)Nc1cc(F)c2nc(C)cn2c1 (stereo not drawn) [Compound 316, 4-ethoxy-N-8-fluoro-2-methylimidazo[1,2-a]pyridin-6-yl-2-(pyrrolidin-3-yl)-pyrimidine-5-carboxamide] | 50 to 75
